Assay results taken from US20250352395A1, “ANTIMICROBIAL HEMOSTATIC DEVICES AND METHODS OF USE AND MAKING” (TELEFLEX LIFE SCIENCES II LLC, priority 2024, published 2025).
Where a name gives a salt, the structure may show the parent alone.

What was measured:
[1] = test system: whole sheep blood; test: Tilt Tube Clot Test; format: biochemical; settings: Example 3
Description: Beakers containing the mixtures were placed on a magnetic stirrer with a stirring rod placed therein. The stir plate was set to 300 RPM. Once the mixture appeared uniform, 130 μL of the mixture was pipetted into each of the appropriately labeled tubes. 20 samples per concentration were used. The samples were tested in a Tilt Tube Clot Test method described below. A water bath was prepared to 37±1° C., and a test tube holder was placed therein. One mL of whole sheep blood at 37° C. was pipetted into each test tube. 150 μL of CaCl2 at 37° C. was then pipetted into a tube and a timer was then started (time “0”). Tubes were capped and gently shaken twice to ensure that the CaCl2 was completely mixed with the blood, and then placed in the water bath. Tubes were tilted by 90° at 15 second intervals, beginning when the timer reads 45 seconds. The time to clot was determined by visual inspection and the clot time was recorded. A clot is defined as a solid mass that may or may not adhere to bottom of test tube. The average clot time for control blood and hemostatic agents was then calculated. […] Samples from Tests 11-13 and Test 10 from Example 2 were then further separated into 0.5″ by 0.5″ squares and added to test tubes. A Tilt Tube Clot Test, as described in Example 1, was performed.

[2] = Appearance of coated gauze after drying at 80° C. for 24 hours; format: physicochemical; settings: exposure to 80° C. for 24 hours
Description: To coat the gauze, 20 mL of the coating mixture was poured into a flatbottom glass dish and then the gauze dipped into the mixture. The gauze was then lifted and allowed to drip. The coated gauze was placed on the wire rack and dried at 80° C. for 24 hrs. After drying was complete, samples were taken from the oven and remeasured for weight and moisture.
After coating, there were noticeable white clumps on the gauze.

[3] = Observation of salt dissolution in DI water during coating; format: physicochemical; settings: Example 3 coating mixture, 0.39 g in 100 mL DI water

| appearance after drying [2] | dissolution in DI water [3] | Structure (SMILES) | clot time ([1]; tested concentrations for CHA (300 and 50 μg/cm^2 targeted)) [s] | clot time ([1]; estimated 300 μg/cm^2, at some individual data points) |
| --- | --- | --- | --- | --- |
| discolored, turning a yellow/orange |  | CC(=O)O.CC(=O)O.NC(=N\CCCCCC/N=C(N)/N=C(\N)Nc1ccc(Cl)cc1)/N=C(\N)Nc1ccc(Cl)cc1 [CHA, Chlorhexidine diacetate] | ≥ 150 |  |
|  | did not dissolve | [H]/N=C(\N/C(=N/[H])NCCCCCCNC(=N)NC(=N)Nc1ccc(Cl)cc1)Nc1ccc(Cl)cc1 [CHD, Chlorhexidine dihydrochloride] |  | less than 150 seconds |
